Laboratory results: patent US7713994B2 (Wyeth LLC, priority 2005, dated 2010)
pIC50: −log10 of the molar value. Like-named read-outs stand apart in the source and are kept apart here.

Columns and labels:
[1] = system: LoVo; assay: Cytotoxicity assay (SRB), LoVo; assay type: cell-based; conditions: Homo sapiens, LoVo, 72 h, read-out: In Vitro Cellular Activity IC50 LOVO
How it was run: (§1)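 Seeding: BT474 12000, HCT-116 4000, LoVo 6000, MCF-7 6000 cells/well; overnight attachment, 37 °C, 7% CO2. Drug exposure 3 d (BT474 6 d), RPMI 1640 + 5% FBS. Readout: TCA fix, 0.4% SRB, Tris solubilisation, A540.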

[2] = system: BT474; assay: Cytotoxicity assay (SRB), BT474; assay type: cell-based; conditions: Homo sapiens, BT-474, 144 h, read-out: In Vitro Cellular Activity IC50 BT474
How it was run: as §1

[3] = system: HCT-116; assay: Cytotoxicity assay (SRB), HCT-116; assay type: cell-based; conditions: Homo sapiens, HCT-116, 72 h, read-out: In Vitro Cellular Activity IC50 HCT116
How it was run: as §1

[4] = target: T1, cyclin D1/cdk 4 enzyme (Homo sapiens, UniProt P11802); assay: CDK4 ELISA kinase assay (phospho-Rb ser 795 detection); assay type: biochemical; conditions: In Vitro Enzyme Assays, 200 μM ATP, read-out: CDK4 IC50
T1 construct: made in house; host or cells: Sf9 insect cells, recombinant baculovirus
How it was run: (§2)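 Sf9-derived cyclin/CDK, 200 μM ATP, immobilized GST-Rb; 30° C/1 h. Detection: phospho-Ser795 Ab, HRP, TMB, OD450.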

[5] = target: T2, cyclin B/CDK1 enzyme (Homo sapiens, UniProt P06493); assay: CDK1 ELISA kinase assay (phospho-Rb ser 795 detection); assay type: biochemical; conditions: In Vitro Enzyme Assays, read-out: CDK1 IC50
T2 construct: purchased New England BioLabs; host or cells: Sf9 insect cells, recombinant baculovirus
How it was run: as §2

[6] = target: T3, cyclin E/CDK2 enzyme (Homo sapiens, UniProt P24941); assay: CDK2 ELISA kinase assay (phospho-Rb ser 795 detection); assay type: biochemical; conditions: In Vitro Enzyme Assays, read-out: CDK2 IC50
T3 construct: made in house; host or cells: Sf9 insect cells, recombinant baculovirus
How it was run: as §2

[7] = system: MCF-7; assay: Cytotoxicity assay (SRB), MCF-7; assay type: cell-based; conditions: Homo sapiens, MCF7, 72 h, read-out: In Vitro Cellular Activity IC50 MCF-7
How it was run: as §1

T2 sequence (P06493 whole entry): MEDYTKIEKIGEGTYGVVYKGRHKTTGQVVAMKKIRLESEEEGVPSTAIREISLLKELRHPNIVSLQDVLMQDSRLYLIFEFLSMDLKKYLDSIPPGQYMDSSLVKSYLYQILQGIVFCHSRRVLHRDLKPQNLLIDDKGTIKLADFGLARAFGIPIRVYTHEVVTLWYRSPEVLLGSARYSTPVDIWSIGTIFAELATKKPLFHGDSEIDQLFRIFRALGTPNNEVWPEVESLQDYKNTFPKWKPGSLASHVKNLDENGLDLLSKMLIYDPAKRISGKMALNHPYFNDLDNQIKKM
T2 sequence (P14635 whole entry partner): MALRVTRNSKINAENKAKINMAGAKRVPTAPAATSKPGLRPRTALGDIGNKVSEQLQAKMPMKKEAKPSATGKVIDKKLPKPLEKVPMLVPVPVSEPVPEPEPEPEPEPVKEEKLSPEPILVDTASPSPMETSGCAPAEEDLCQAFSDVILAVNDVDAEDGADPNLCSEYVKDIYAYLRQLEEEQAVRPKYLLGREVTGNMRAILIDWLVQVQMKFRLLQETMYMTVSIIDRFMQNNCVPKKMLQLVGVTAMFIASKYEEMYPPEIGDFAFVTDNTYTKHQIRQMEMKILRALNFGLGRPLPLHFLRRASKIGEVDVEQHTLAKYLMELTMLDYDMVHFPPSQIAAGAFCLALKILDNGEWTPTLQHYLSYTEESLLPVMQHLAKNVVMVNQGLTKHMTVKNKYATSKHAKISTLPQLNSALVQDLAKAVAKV
T1 sequence (P11802 whole entry, species assumed): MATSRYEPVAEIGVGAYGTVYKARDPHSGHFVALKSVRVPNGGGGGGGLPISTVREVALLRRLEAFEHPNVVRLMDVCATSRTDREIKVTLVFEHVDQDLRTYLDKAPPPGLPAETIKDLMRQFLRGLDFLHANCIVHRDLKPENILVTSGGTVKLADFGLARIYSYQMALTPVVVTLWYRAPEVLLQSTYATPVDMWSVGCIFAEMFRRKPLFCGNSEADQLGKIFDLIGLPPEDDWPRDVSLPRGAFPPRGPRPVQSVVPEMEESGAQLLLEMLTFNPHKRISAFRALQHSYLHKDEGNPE
T1 sequence (P24385 whole entry partner, species assumed): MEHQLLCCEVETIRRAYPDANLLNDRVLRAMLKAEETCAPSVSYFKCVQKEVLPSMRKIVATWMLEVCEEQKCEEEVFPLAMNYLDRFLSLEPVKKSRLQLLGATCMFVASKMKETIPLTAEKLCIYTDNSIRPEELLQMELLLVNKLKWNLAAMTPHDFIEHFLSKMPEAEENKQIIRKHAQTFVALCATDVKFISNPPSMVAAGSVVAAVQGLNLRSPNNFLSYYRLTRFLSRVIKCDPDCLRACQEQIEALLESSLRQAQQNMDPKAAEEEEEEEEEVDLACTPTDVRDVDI

Row | SMILES | pIC50 [4] | pIC50 [5] | pIC50 [6] | melting point | pIC50 ([1]; LoVo cells, SRB, three days) | pIC50 ([2]; BT474 cells, SRB, 6 days) | pIC50 ([3]; HCT116 cells, SRB, three days) | pIC50 ([7]; MCF-7 cells, SRB, three days) | pIC50 [1] | pIC50 [2] | pIC50 [3] | pIC50 [7]
1 | CC(=O)Nc1ccc(CN/C=C2\C(=O)NC(=O)c3ccc(I)cc32)cc1OC(C)=O [Example 146, 2-(Acetylamino)-5-({[(Z)-(6-iodo-1,3-dioxo-2,3-dihydroisoquinolin-4(1H)-′ylidene)methyl]amino}methyl)phenyl acetate] | 7.00 | < 4.30 | 5.07 | 264 to 265 °C | 6.07 | 6.31 | 6.18 | 5.57 |  |  |  | 
2 | O=C1NC(=O)c2ccc(-c3ccsc3)cc2C1=NNc1ccc(CN2CCCCC2)cc1 [Example 152, 4-[(4-Piperidin-1-ylmethyl-phenyl)-hydrazono]-6-thiophen-3-yl-4H-isoquinoline-1,3-dione] | 7.22 | 4.44 | < 4.30 | 164 to 168 °C (dec.) | 5.18 | 5.47 | 5.55 | 5.21 |  |  |  | 
3 | O=C1NC(=O)c2ccc(-c3ccoc3)cc2C1=NNc1ccc(CN2CCCCC2)cc1 [Example 156, 6-Furan-3-yl-4-[(4-piperidin-1-ylmethyl-phenyl)-hydrazono]-4H-isoquinoline-1,3-dione] | 7.40 | < 4.30 | < 4.30 | 223 to 225 °C (dec.) | 5.19 | 5.59 | 5.60 | 5.82 |  |  |  | 
4 | COCCOc1ccc(CN/C=C2\C(=O)NC(=O)c3ccc(Br)cc32)cc1O [Example 158] | 7.40 | < 4.30 | < 4.30 | 179 to 180 °C | 4.52 | 4.55 | 4.49 | < 4.30 |  |  |  | 
5 | COc1ccc(CNC=C2C(=O)NCc3ccccc32)cc1O [Example 160, 4-[(3-Hydroxy-4-methoxy-benzylamino)-methylene]-1,4-dihydro-2H-isoquinoline-3-one] | 4.69 | < 4.30 | 4.51 | 177 to 179 °C (dec.) | 4.37 | < 4.30 | < 4.30 | 4.52 |  |  |  | 
6 | O=C1NCc2ccccc2C1=CNc1ccc(CN2CCCCC2)cc1 [Example 162, 4-[(4-Piperidin-1-ylmethyl-phenylamino)-methylene]-1,4-dihydro-2H-isoquinolin-3-one] | 4.73 | < 4.30 | < 4.30 | 188 to 189 °C (dec.) | 5.04 | 4.64 | 5.36 | 5.41 |  |  |  | 
7 | O=C1NC(=O)c2ccc(I)cc2/C1=C/NCc1ccc(Cl)c(O)c1 [Example 165, (4Z)-4-{[(4-Chloro-3-hydroxybenzyl)amino]methylene}-6-iodoisoquinoline-′1,3(2H,4H)-dione] | 6.70 | < 4.30 | 4.72 | 324 to 325 °C | < 4.30 | < 4.30 | 4.64 | < 4.30 |  |  |  | 
8 | O=C1NCc2ccccc2C1=CNc1ccc(CCN2CCCC2)cc1 [Example 170, 4-{[4-(2-Pyrrolidin-1-yl-ethyl)-phenylamino]-methylene}-1,4-dihydro-2H-isoquinolin-3-one] | 4.33 | < 4.30 | < 4.30 | 169 to 173 °C (dec.) | 4.68 | 4.57 | 5.21 | 4.96 |  |  |  | 
9 | CN1CCN(c2ccc(N/C=C3\C(=O)NC(=O)c4ccc(C#Cc5ccccc5)cc43)cc2)CC1 [Example 171, (4Z)-4-({[4-(4-Methylpiperazin-1-yl)phenyl]amino}methylene)-6-(phenylethynyl)-isoquinoline-1,3(2H,4H)-dione] | 5.64 | 4.48 | < 4.30 | 169 to 170 °C | 5.01 | 5.29 | 5.92 | 5.52 |  |  |  | 
10 | CN1CCN(c2ccc(N/C=C3\C(=O)NC(=O)c4ccc(-c5ccc(-c6cccs6)s5)cc43)cc2)CC1 [Example 182, (4Z)-6-(2,2′-Bithien-5-yl)-4-({[4-(4-methylpiperazin-1-yl)phenyl]amino}methylene)-isoquinoline-1,3(2H,4H)-dione] | 5.64 | 5.64 | < 4.30 | 204 to 205 °C |  |  |  |  | < 4.30 | 4.77 | < 4.30 | < 4.30

Second part, led by results:

Row | pIC50 [4] | pIC50 [5] | pIC50 [6] | melting point | SMILES | pIC50 ([1]; LoVo cells, SRB, three days) | pIC50 ([2]; BT474 cells, SRB, 6 days) | pIC50 ([3]; HCT116 cells, SRB, three days) | pIC50 ([7]; MCF-7 cells, SRB, three days) | pIC50 [1] | pIC50 [2] | pIC50 [3] | pIC50 [7]
11 | 4.63 | 4.63 | < 4.30 | 155 to 156 °C | COc1ccc(C#Cc2ccc3c(c2)/C(=C/Nc2ccc(N4CCN(C)CC4)cc2)C(=O)NC3=O)cc1 [Example 172, (4Z)-6-[(4-Methoxyphenyl)ethynyl]-4-({[4-(4-methylpiperazin-1-yl)phenyl]amino}-methylene)isoquinoline-1,3(2H,4H)-dione] | < 4.30 | 4.77 | 5.06 | < 4.30 |  |  |  | 
12 | 5.89 | < 4.30 | < 4.30 | 212 to 214 °C (dec.) | O=C1NC(=O)c2ccc(Br)cc2/C1=C/Nc1ccc(CCN2CCCC2)cc1 [Example 176, 6-Bromo-4-{[4-(2-pyrrolidin-1-yl-ethyl)-phenylamino]-methylene}-4H-isoquinolin-1,3-dione] | 5.35 | 5.14 | 5.47 | 5.42 |  |  |  | 
13 | 5.96 | < 4.30 | < 4.30 | 209 to 210 °C | COCC#Cc1ccc2c(c1)/C(=C/Nc1ccc(N3CCN(C)CC3)cc1)C(=O)NC2=O [Example 177, (4Z)-6-(3-Methoxyprop-1-ynyl)-4-({[4-(4-methylpiperazin-1-yl)phenyl]amino}-methylene)isoquinoline-1,3(2H,4H)-dione] | 5.41 | 5.41 | 5.51 | 5.39 |  |  |  | 
14 | 7.15 | < 4.30 | < 4.30 | 256 to 258 °C | O=C1NC(=O)c2ccc(Br)cc2/C1=C/NCc1ccc(OC(F)F)c(O)c1 [Example 180] | 5.21 | 5.29 | 5.23 | 4.82 |  |  |  | 
15 | 5.22 | < 4.30 | 4.38 | 179 to 180 °C | COC(=O)Nc1ccc(CN/C=C2\C(=O)NC(=O)c3ccc(Br)cc32)cc1OC(=O)OC [Example 184, 5-({[(Z)-(6-Bromo-1,3-dioxo-2,3-dihydroisoquinolin-4(1H)-′ylidene)methyl]amino}methyl)-2-[(methoxycarbonyl)amino]phenyl methyl carbonate] | 4.70 | 5.07 | 4.89 | 4.30 |  |  |  | 
